Legend:
Experiment in all cases: relative viability (nuclei count vs DMSO), 5 days (fraction); higher = more cells survive
[1] = compound: C1=CC2=NC=CN=C2C=C1/C=C/3\C(=O)NC(=O)S3 + C[C@@H](Oc1cc(-c2cnn(C3CCNCC3)c2)cnc1N)c1c(Cl)ccc(F)c1Cl [Crizotinib] (partner 1 µM)
In short: (§1)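 Relative viability is defined as nuclei in treated wells over nuclei in vehicle wells. Duplicate plates were run and medians reported. Lung cancer cell lines in 1536-well plates were dosed by pin tool one day after seeding, with one drug or with a fixed anchor-drug dose plus five library-drug doses (not always all listed) in √10 steps, and nuclei were counted after 5 days.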

BGJ398 + Dasatinib = compound: CCN1CCN(c2ccc(Nc3cc(N(C)C(=O)Nc4c(Cl)c(OC)cc(OC)c4Cl)ncn3)cc2)CC1 [BGJ398] + Cc1nc(Nc2ncc(C(=O)Nc3c(C)cccc3Cl)s2)cc(N2CCN(CCO)CC2)n1 [Dasatinib] (partner 0.075 µM)
In short: as §1

BGJ398 + Luminespib = compound: CCN1CCN(c2ccc(Nc3cc(N(C)C(=O)Nc4c(Cl)c(OC)cc(OC)c4Cl)ncn3)cc2)CC1 [BGJ398] + CCNC(=O)c1noc(-c2cc(C(C)C)c(O)cc2O)c1-c1ccc(CN2CCOCC2)cc1 [Luminespib] (partner 0.01 µM)
In short: as §1

BGJ398 + Navitoclax = compound: CCN1CCN(c2ccc(Nc3cc(N(C)C(=O)Nc4c(Cl)c(OC)cc(OC)c4Cl)ncn3)cc2)CC1 [BGJ398] + CC1(C)CCC(c2ccc(Cl)cc2)=C(CN2CCN(c3ccc(C(=O)NS(=O)(=O)c4ccc(N[C@H](CCN5CCOCC5)CSc5ccccc5)c(S(=O)(=O)C(F)(F)F)c4)cc3)CC2)C1 [Navitoclax] (partner 0.5 µM)
In short: as §1

Cell Line | relative viability ([1]; first compound 0.02 µM) | relative viability ([1]; first compound 0.06325 µM) | relative viability ([1]; first compound 0.2 µM) | relative viability ([1]; first compound 0.6325 µM) | relative viability ([1]; first compound 2 µM) | relative viability (BGJ398 + Dasatinib; first compound 0.01 µM) | relative viability (BGJ398 + Dasatinib; first compound 0.03162 µM) | relative viability (BGJ398 + Dasatinib; first compound 0.1 µM) | relative viability (BGJ398 + Dasatinib; first compound 0.3162 µM) | relative viability (BGJ398 + Dasatinib; first compound 1 µM) | relative viability (BGJ398 + Luminespib; first compound 0.01 µM) | relative viability (BGJ398 + Luminespib; first compound 0.03162 µM) | relative viability (BGJ398 + Luminespib; first compound 0.1 µM) | relative viability (BGJ398 + Luminespib; first compound 0.3162 µM) | relative viability (BGJ398 + Luminespib; first compound 1 µM) | relative viability (BGJ398 + Navitoclax; first compound 0.01 µM) | relative viability (BGJ398 + Navitoclax; first compound 0.03162 µM) | relative viability (BGJ398 + Navitoclax; first compound 0.1 µM) | relative viability (BGJ398 + Navitoclax; first compound 0.3162 µM) | relative viability (BGJ398 + Navitoclax; first compound 1 µM)
NCI-H1666 | 0.992 | 1.02 | 1.05 | 1.01 | 1.07 | 0.764 | 0.802 | 0.911 | 0.759 | 0.697 | 1 | 0.998 | 0.99 | 1.04 | 0.988 | 0.949 | 1.01 | 0.91 | 0.967 | 0.842
NCI-H1734 | 0.665 |  | 0.808 | 0.637 | 0.611 | 0.443 | 0.53 | 0.514 | 0.425 | 0.468 | 0.178 | 0.179 | 0.22 | 0.171 | 0.17 | 0.836 | 0.878 | 0.81 | 0.832 | 0.826
NCI-H1755 | 0.747 | 0.786 | 0.86 | 0.863 | 0.817 | 0.406 | 0.464 | 0.45 | 0.411 | 0.313 | 0.498 | 0.363 | 0.339 | 0.606 | 0.417 | 0.984 | 1.04 | 0.986 | 0.968 | 1.07
NCI-H1792 | 0.936 | 0.872 | 1.02 | 0.792 | 0.668 | 0.644 | 0.783 | 0.741 | 0.497 | 0.343 | 0.406 | 0.542 | 0.344 | 0.401 | 0.277 | 0.659 | 0.561 | 0.642 | 0.601 | 0.553
NCI-H1915 | 0.861 | 0.934 | 0.918 | 0.859 | 0.894 | 0.308 | 0.306 | 0.309 | 0.295 | 0.261 | 0.675 | 0.826 | 0.852 | 0.688 | 0.784 | 0.73 | 0.786 | 0.774 | 0.77 | 0.766
NCI-H1944 | 1.07 | 1.06 | 1.01 | 0.993 | 1.1 | 0.166 | 0.21 | 0.23 | 0.198 | 0.203 | 0.687 | 0.714 | 0.787 | 0.722 | 0.716 | 0.986 | 1.05 | 1.08 | 0.884 | 1.05
NCI-H1975 | 1.02 | 1.01 | 0.937 | 1.03 | 0.97 | 0.359 | 0.449 | 0.378 | 0.34 | 0.316 | 0.218 | 0.179 | 0.204 | 0.237 | 0.261 | 1.11 | 1.09 | 1.12 | 1.19 | 1.05
NCI-H1993 | 0.914 | 1.03 | 0.806 | 0.848 | 0.668 | 0.694 | 0.595 | 0.611 | 0.641 | 0.578 | 0.962 | 0.916 | 1.08 | 0.954 | 0.737 | 1.02 | 0.836 | 0.909 | 1.02 | 0.882
NCI-H2009 | 1.06 | 1.1 | 1.05 | 1.04 | 1.03 | 0.275 | 0.311 | 0.295 | 0.329 | 0.297 | 1.06 | 1.05 | 1.03 | 1.02 | 0.972 | 1.21 | 1.19 | 1.18 | 1.23 | 1.17
NCI-H2023 | 0.707 | 0.693 | 0.608 | 0.61 | 0.613 | 0.517 | 0.537 | 0.582 | 0.489 | 0.438 | 0.627 | 0.849 | 0.739 | 0.851 | 0.809 | 0.953 | 1.01 | 1.01 | 1.02 | 0.993
NCI-H2085 | 0.897 | 0.917 | 0.766 | 0.829 | 0.937 | 0.272 | 0.236 | 0.215 | 0.279 | 0.229 | 0.308 | 0.485 | 0.564 | 0.498 | 0.422 | 1.09 | 1.13 | 1.15 | 1.23 | 1.05
NCI-H2087 | 0.849 | 0.954 | 0.707 | 0.804 | 0.8 | 0.824 | 0.898 | 0.808 | 0.801 | 0.871 | 0.177 | 0.186 | 0.173 | 0.203 | 0.133 | 0.847 | 0.973 | 0.83 | 0.974 | 0.741
NCI-H2126 | 0.995 | 1.11 | 0.97 | 0.974 | 0.957 | 0.696 | 0.646 | 0.565 | 0.687 | 0.563 | 0.894 | 0.973 | 0.926 | 0.891 | 0.832 | 0.809 | 0.831 | 0.888 | 0.839 | 0.902
NCI-H2170 | 1.14 | 1.22 | 1.2 | 1.16 | 1.34 | 0.527 | 0.427 | 0.562 | 0.545 | 0.558 | 0.736 | 0.811 | 0.724 | 0.795 | 1.24 | 0.505 | 0.572 | 0.586 | 0.671 | 0.765
NCI-H2228 | 0.407 | 0.433 | 0.587 | 0.294 | 0.428 | 0.471 | 0.498 | 0.516 | 0.567 | 0.423 | 0.111 | 0.141 | 0.152 | 0.139 | 0.128 | 0.728 | 1.04 | 0.998 | 0.893 | 0.867
